In patent publication US20050204416A1, “Plant cells having receptor polypeptides” (priority 2004, published 2005):

Legend:
[1] = molecular target: T1, VP16-human estrogen receptor alpha (ERa) chimeric polypeptide (Homo sapiens, UniProt P03372, G400V)
Protocol: About 50 selected lines were obtained and cultured at 27° C. on N6 media containing 5 mg/ml bialaphos, with transfer to fresh media occurring about every 2 weeks. […] After incubation for about 40 hours, callus cells were examined under a dissecting microscope at 10× to 60× magnification.

[2] = molecular target: T1, VP16-human estrogen receptor alpha (ERa) chimeric polypeptide; assay: Transgenic Arabidopsis T2 seedlings containing VP16ERα and ERE-GFP constructs, green fluorescence; format: cell-based; design: expressed in transfected cells; host or cells: transgenic rice callus (A1); transgenic Arabidopsis T2 seedlings (A2); Agrobacterium binary vector Bin4-EUTG-10::VPCR-ER-1#81, CaMV35S promoter

T1 sequence (P03372 with tags, fused parts or gaps G400V): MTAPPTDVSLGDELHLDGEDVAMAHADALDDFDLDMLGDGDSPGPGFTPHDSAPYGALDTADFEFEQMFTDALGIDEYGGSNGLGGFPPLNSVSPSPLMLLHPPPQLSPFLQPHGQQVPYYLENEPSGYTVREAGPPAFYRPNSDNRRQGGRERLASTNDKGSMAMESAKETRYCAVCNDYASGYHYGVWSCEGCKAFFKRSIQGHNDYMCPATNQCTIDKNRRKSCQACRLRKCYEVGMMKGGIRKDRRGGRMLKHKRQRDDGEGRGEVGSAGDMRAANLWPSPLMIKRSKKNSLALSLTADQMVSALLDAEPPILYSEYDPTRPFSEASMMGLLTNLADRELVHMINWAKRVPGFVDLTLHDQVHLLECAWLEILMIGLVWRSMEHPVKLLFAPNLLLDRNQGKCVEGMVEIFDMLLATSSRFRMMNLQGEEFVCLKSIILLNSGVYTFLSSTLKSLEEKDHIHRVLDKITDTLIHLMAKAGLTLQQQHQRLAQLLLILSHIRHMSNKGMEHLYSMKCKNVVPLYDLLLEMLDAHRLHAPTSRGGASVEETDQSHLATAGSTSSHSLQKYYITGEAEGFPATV

Substance: 4-hydroxytamoxifen
- green fluorescence (GFP reporter) in the presence of the exogenous compound [1]: moderate to very bright green fluorescence
- green fluorescence (GFP reporter) of T2 seedlings [2]: moderate to strong green fluorescence
